Reference: ChEMBL document CHEMBL1135985, “Synthesis, pharmacokinetics, efficacy, and rat retinal toxicity of a novel mitomycin C-triamcinolone acetonide conjugate” (J Med Chem, 2002)

Assays:
NIH3T3 [1] = assay: Inhibition of NIH 3T3 cell growth required to induce 50% of maximum response using antiproliferative assay; type: functional, cell-based; settings: Mus musculus
NIH3T3 [2] = assay: Maximal percent of fibroblast cell growth inhibition using antiproliferative assay; type: functional, Mus musculus

With `CC1(C)O[C@@H]2CC3C4CCC5=CC(=O)C=C[C@]5(C)[C@@]4(F)[C@@H](O)C[C@]3(C)[C@]2(C(=O)CO)O1.CO[C@@]12[C@H](COC(N)=O)C3=C(C(=O)C(C)=C(N)C3=O)N1C[C@@H]1N[C@@H]12` (stereo partly drawn) [MIXTURE OF MMC AND TA] as the molecule, how does the IC50 (NIH3T3 [1]) read?
The IC50 was 1600 nM.

What about the Inhibition (NIH3T3 [2]) of the same molecule?
Its Inhibition is 83%.

Which results are given for `CC1(C)O[C@@H]2C[C@H]3[C@@H]4CCC5=CC(=O)C=C[C@]5(C)[C@@]4(F)[C@@H](O)C[C@]3(C)[C@]2(C(=O)CO)O1` [TRIAMCINOLONE ACETONIDE]?
IC50 (NIH3T3 [1]): 2500 nM; Inhibition (NIH3T3 [2]): 25%

With `CO[C@@]12[C@H](COC(N)=O)C3=C(C(O)=C(C)C(=N)C3=O)N1C[C@H]1[C@@H]2N1C(=O)CCCC(=O)OCC(=O)[C@@]12OC(C)(C)O[C@@H]1CC1C3CCC4=CC(=O)C=C[C@]4(C)[C@@]3(F)[C@@H](O)C[C@@]12C` (stereo partly drawn) as the molecule, how does the IC50 (NIH3T3 [1]) read?
The IC50 was 2400 nM.

And the Inhibition (NIH3T3 [2])?
Its Inhibition is 67%.

Which results are given for `CO[C@@]12[C@H](COC(N)=O)C3=C(C(=O)C(C)=C(N)C3=O)N1C[C@@H]1N[C@@H]12` [MITOMYCIN]?
IC50 (NIH3T3 [1]): 1700 nM; Inhibition (NIH3T3 [2]): 88%
